In patent US9815883B2, “Inhibiting peptides derived from TREM-like transcript 1 (TLT-1) and uses thereof” (Institut National de la Sante et de la Recherche Medicale …, priority 2010, dated 2017):
“Also recorded” adds a separate entry of the source.

Experiments:
[1] = tested on: TREM-1 ligand expressed on resting or thrombin-activated human platelets; assay: Flow cytometry binding of FITC-labelled peptides to human platelets
Experimental: (B) Flow cytometry analysis of FITC-labelled LR17 (1 or 5 μg/mL) binding to TREM-1 ligand expressed on resting or thrombin-activated (5 UI/mL) human platelets is reversed by co-incubation with unlabelled LR17, sTLT-1 or LP17, a TREM-1 derived peptide.
Acid Citrate Dextrose blood samples were centrifuged (100 g, 10 min) to obtain Platelet-Rich Plasma. PRP was then centrifuged (550 g, 10 min) over a 36% (wt/vol) BSA gradient and platelets collected from the interphase before being washed in Tyrode's salts buffer (Sigma-Aldrich) supplemented with 5 mM EGTA. For activation, platelets were incubated for 30 minutes with 5 U/mL thrombin (Sigma-Aldrich) or 1 μg/mL E. Coli LPS (0111:B4, Sigma-Aldrich) at 37° C. and subsequently fixed with 2% (wt/vol) paraphormaldehyde (PFA, Sigma-Aldrich). Residual PFA was removed by two additional washing steps in Tyrode buffer. Activation was assessed by anti-CD62P (Beckman Coulter).
(§1) Isolated cells (neutrophils, monocytes or platelets) were blocked for aspecific binding with 10% human Ig (Sigma-Aldrich) for 1 hour on ice. Cells were incubated with recombinant soluble FITC-labelled TLT-1-peptides, FITC-labelled LP17 (or corresponding FITC-labelled scrambled peptides), PE-labelled anti-TREM-1 mAb (R&Dsystems), CD62P-FITC, CD66b-PE, CD45-PE, CD14-FITC (all from Beckman Coulter)

[2] = tested on: neutrophils or monocytes; assay: Flow cytometry binding to neutrophils or monocytes; set-up: species or system human; details: cells not expressing TREM-1 ligand
Experimental: PMNs were isolated by a Sodium Diatrizoate 13.8%/Dextran 500 8.0% density gradient (polymorphprep, AbCys). Monocytes were isolated by negative cell-sorting of PB-MNCs by Monocytes Isolation Kit II (Miltenyi). Cells were then washed twice with PBS (BioMerieux) and resuspended in complete medium (RPMI 1640 containing 100 UI/mL penicillin, 100 μg/mL streptomycin, […] Amphotericin B and 10% FCS, Eurobio) before stimulation. Purity was assessed by flow cytometry (anti-CD45, -CD14 and -CD66b, Beckman Coulter).
as §1

[3] = tested on: TREM-1; assay: Protein phosphorylation analysis in stimulated neutrophils; type: cell-based, human
Experimental: For these experiments, isolated human neutrophils were stimulated with TREM-1 agonist (αTREM-1, 5 μg/mL) with or without LR17 (30 μg/mL) or control LR17-scrambled peptide (30 μg/mL) at indicated times. Data are representative of at least 5 different experiments. Results are mean±SD. p values are ***p<0.001 **p<0.01 *p<0.05 [αTREM-1+LR17] versus [αTREM-1].
(A) Activation of TREM-1 phosphorylation pathway: Western Blot of lysates of neutrophils stimulated for 1, 3, 10, 30 and 60 minutes, analysed with antibody to phospho (p)-p38 and (p)-ERK1/2.
For these experiments, isolated human neutrophils or monocytes were stimulated with LPS (0.1 μg/mL) and TREM-1 agonist (αTREM-1, 5 μg/mL) with or without LR17 (30 μg/mL) or control LR17-scrambled peptide (30 μg/mL), at indicated times. Data are representative of at least 5 different experiments. Results are mean±SD. p values are ***p<0.001 **p<0.01 *p<0.05 [LPS/LR17] versus [LPS] or [LPS+αTREM-1/LR17] versus [LPS+αTREM-1].
(A) Western Blot of lysates of neutrophils stimulated for 1, 3, 10, 30 and 60 minutes, analysed with antibody to phosphor (p)-p38 and (p)-ERK1/2.
Depending on the experiment, cells were stimulated in complete medium supplemented with 100 ng/mL of E. Coli LPS (0111:B4, Sigma-Aldrich), anti-TREM-1 mAb (R&Dsystems) and TLT-1-peptides at different times and concentrations on 96-wells plates (Greiner Bio One). Supernatants were collected for cytokine measurements and cells subjected to flow cytometry or lysed for protein phosphorylation analyses and NFkB activity measurement.
Stimulated PMNs were lysed at 1, 3, 10, 30 and 60 minutes with PhosphoSafe Extraction Reagent (Novagen) and centrifuged for 5 minutes at 16,000 g at 4° C. to collect the supernatant. Protein concentration was determined according to Bradford's method (Pierce). […] Alternatively, PMNs were analyzed after 20 minutes of stimulation for a panel of multiple phosphorylated proteins by immunoblot (Human Phospho-Kinase Array, R&Dsystems). Acquisition and quantitative signals density analyses were done by LAS-4000 imager and Multi-Gauge software (Fujifilm).

[4] = tested on: human neutrophils; assay: Neutrophil phagocytosis and oxidative burst (Phagotest, Bursttest); type: cell-based
Experimental: Data (mean±SD) are representative of 6 different experiments.
The quantitative determination of neutrophil phagocytosis and oxidative burst was performed by flow cytometry using the Phagotest and the Bursttest (Orpegen Pharma, Heidelberg, Germany) following the manufacturers' recommendations. A FITC-labelled opsonized E. coli was used to determine the general phagocytic activity (ingestion of one or more bacteria per cell) and the individual cellular phagocytic activity (number of bacteria per cell). For evaluation of oxidative burst activity, unlabeled opsonized E. coli, fMLP, PMA LPS and activated- or non-activated-platelets (30:1) were used as stimulants and DCFDA as a fluoregenic substrate (Invitrogen) accordingly with manufacturers' instructions.

[5] = tested on: male Balb/c mice; assay: LPS-induced endotoxemia in mice; type: in vivo, mouse
Experimental: Male Balb/c mice (20-23 g) were randomly grouped (15 mice per group) and treated with an LD50 of LPS. LR17 (100 μg or 250 μg in 0.2 mL NaCl 0.9%), scrambled-LR17 (100 μg in 0.2 mL NaCl 0.9%), or 0.2 mL NaCl 0.9% was administered 60 min before or 60 minutes after LPS. 4-6 animals per group were sacrificed upon penthotal overdose at 2 and 4 hours after LPS injection and blood was sampled through cardiac puncture. Results are mean±SD. p values are *p<0.05, **p<0.01, ***p<0.001 compared with control animals.
After approval by the local ethical committee, male Balb/c mice (4-6 weeks) were randomly grouped and treated with LPS i.p. in combination with LR17 (in 250 μL normal saline) or LR17-scrambled 1 hour before or after LPS challenge. The viability of mice was examined every hour, or animals were killed at regular intervals. Serum samples were collected by cardiac puncture and assayed for cytokines and sTREM-1 levels by ELISA (R&Dsystems).

[6] = competition with unlabelled substance

LQEEDAGEYGCMVDGAR (listed as Homo sapiens) [LR17]
binding of FITC-labelled LR17 to platelets ([1]; FITC-labelled peptide 1 or 5 μg/mL, resting or thrombin-activated (5 UI/mL) platelets): binds both to resting and thrombin-activated platelets | effect of co-incubation on FITC-labelled LP17 binding to platelets [1, 6]: decreased | effect of co-incubation on FITC-labelled LR17 binding to platelets [1, 6]: reversed | binding to neutrophils or monocytes [2]: did not bind | phosphorylation of p38 and ERK1/2 ([3]; LPS 0.1 μg/mL with or without αTREM-1, peptide 30 μg/mL): decreased | phosphorylation of mTOR, Lyn, AKT, MSK1/2, MEK 1/2, GSK 3α/β, RSK, and p53 (phosphoprotein arrays) ([3]; TREM-1 signalling, data not shown): reduced | p38 MAPK and ERK 1/2 phosphorylation ([3]; αTREM-1 5 μg/mL, peptide 30 μg/mL, 1-60 minutes): partly abrogated | neutrophil oxidative burst mediated by E. coli [4]: decreased | neutrophils' phagocytic properties ([4]; E. coli): did not alter | PMA- or fMLP-induced oxidative burst ([4]; not shown): no action | serum levels of TNF-α, IL-6, IL-10 and sTREM-1 ([5]; 2 and 4 h, pre- and post-treatment, versus controls): reduced | survival curve ([5]; Log Rank test, p=0.0032): confers a survival advantage | survival, delayed treatment ([5]; injected 1 hour after LPS): significant protection | comparison of doses (250 μg vs 100 μg) or injection times ([5]; mouse, in vivo): no differences between doses or injection times; also recorded: did not confer advantage | late death ([5]; over 10 days): No late death occurred | survival ([5]; single i.p. dose 60 min before LPS (LD50, 25 mg/kg)): All LR17-treated animals survived
